# Reference: US20080161232A1, “C5a Receptor Antagonist” (JERINI AG, priority 2005, published 2008)
# Starred links: 1 amine or outer side, 2 acyl side, 3 side chain; linkers in the order of their positions; H or OH if unused. Positions of bridges follow the written chain, without caps; N, C: chain ends. Non-standard residues stand in square brackets, D forms with d. Residues, ends and D or L forms follow the SMILES beside them. *: point of attachment. N(3,4-(MeO)2phenethyl)Gly = COc1ccc(CCNCC(=O)O)cc1OC; Phe(4-guanidino) = N=C(N)Nc1ccc(C[C@H](N)C(=O)O)cc1; dβ3hPhg = O=C(C[C@H](N[*:1])c1ccccc1)[*:2]; Phe(3-Cl) = N[C@@H](Cc1cccc(Cl)c1)C(=O)O; Phe(3-Me) = Cc1cccc(C[C@H](N)C(=O)O)c1; Phe(4-F) = N[C@@H](Cc1ccc(F)cc1)C(=O)O; X4 = O=C([C@H](CNC1=NCCN1)N[*:1])[*:2]; Acetyl(4-pyridyl) = O=C(Cc1ccncc1)*; Bta = N[C@@H](Cc1csc2ccccc12)C(=O)O; NEtPhe = CCN[C@@H](Cc1ccccc1)C(=O)O; Hyp = O=C(O)[C@@H]1C[C@@H](O)CN1; d(hLeu) = CC(C)CC[C@@H](N)C(=O)O; hCit = NC(=O)NCCCC[C@H](N)C(=O)O; Tic = O=C(O)[C@@H]1Cc2ccccc2CN1; 2Thi = N[C@@H](Cc1cccs1)C(=O)O; Cha = N[C@@H](CC1CCCCC1)C(=O)O; dCha = N[C@H](CC1CCCCC1)C(=O)O; Chg = N[C@H](C(=O)O)C1CCCCC1; Nicotinoyl = O=C(c1cccnc1)*; NMeS = CN[C@@H](CO)C(=O)O; Pip = O=C(O)[C@@H]1CCCCN1; Nle = CCCC[C@H](N)C(=O)O; Orn = NCCC[C@H](N)C(=O)O; Aze = O=C(O)[C@@H]1CCN1; X22 = c1cncc(C*)c1; Acm = CC(=O)NC*; tBu = CC(C)(C)*
# Biological target: T1, human C5aR(CD88) (Homo sapiens, UniProt P21730)
# T1 construct: expressed in transfected cells; host or cells: rat basophilic leukemia cells (RBL)
# T1 sequence (P21730 1-350): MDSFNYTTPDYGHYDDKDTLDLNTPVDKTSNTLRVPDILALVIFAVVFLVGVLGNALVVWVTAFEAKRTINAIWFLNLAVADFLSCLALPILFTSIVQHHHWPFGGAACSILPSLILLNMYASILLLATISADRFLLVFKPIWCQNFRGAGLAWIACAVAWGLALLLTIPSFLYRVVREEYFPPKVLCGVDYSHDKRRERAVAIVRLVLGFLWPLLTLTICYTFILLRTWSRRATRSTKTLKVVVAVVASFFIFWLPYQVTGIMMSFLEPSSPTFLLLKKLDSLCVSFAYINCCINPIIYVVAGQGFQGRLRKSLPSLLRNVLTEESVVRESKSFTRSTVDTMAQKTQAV
# Assay: Determination of the IC50 value in an enzyme release assay (functional assay, antagonistic activity)
# Assay type: cell-based
# Conditions: antagonistic activity; IC50 group in enzyme release assay, RBL cells expressing human C5aR(CD88); read-out: activity (group)
row,Compound,IC50
1,"CCCC[C@@H]1NC(=O)[C@H](Cc2ccc(F)cc2)NC(=O)[C@@H](CCC(C)C)NC(=O)[C@@H]2CCCN2C(=O)[C@@H](NC(=O)[C@H](Cc2ccccc2)NCC)CCCNC1=O [Compound 319, Eth-Phe-[Orn-Pro-hle-Pff-Nle]] (H-[NEtPhe][Orn]P[d(hLeu)][Phe(4-F)][Nle]; lactam 2-C)",0.05 to 0.2 µM
2,"CC(C)(C)SC[C@H]1NC(=O)[C@@H]2C[C@@H](O)CN2C(=O)[C@@H](NC(=O)[C@@H](N)Cc2ccccc2)CCCNC(=O)[C@H](Cc2ccccc2)NC(=O)[C@H](Cc2c[nH]c3ccccc23)NC1=O [Compound 360, H-Phe-[Orn-Hyp-ctb-Trp-Phe]] (H-F[Orn][Hyp][dC](tBu)WF; lactam 2-C)",0.02 to 0.05 µM
3,"CCCC[C@@H]1NC(=O)[C@H](Cc2c[nH]c3ccccc23)NC(=O)[C@@H](CC2CCCCC2)NC(=O)[C@@H]2C[C@@H](O)CN2C(=O)[C@@H](NC(=O)[C@@H](N)Cc2ccccc2)CCCNC1=O [Compound 356, H-Phe-[Orn-Hyp-cha-Trp-Nle]] (H-F[Orn][Hyp][dCha]W[Nle]; lactam 2-C)",0.02 to 0.05 µM
4,"CC(=O)NCSC[C@H](NC(=O)[C@H](Cc1ccccc1)NC(C)=O)C(=O)N1CCC[C@H]1C(=O)N[C@H](CC1CCCCC1)C(=O)N[C@@H](Cc1csc2ccccc12)C(=O)N[C@@H](Cc1ccccc1)C(N)=O [Compound 123, Ac-Phe-Cys(Acm)-Pro-cha-Bta-Phe-NH2] (Ac-FC(Acm)P[dCha][Bta]F-NH2)",0.2 to 2 µM
5,"CC(=O)N[C@@H](Cc1ccccc1)C(=O)N[C@H]1CCCNC(=O)[C@H](Cc2ccccc2)NC(=O)[C@H](Cc2csc3ccccc23)NC(=O)[C@@H](CCC(C)C)NC(=O)[C@@H]2CCCCN2C1=O [Compound 185, Ac-Phe-[Orn-Pip-hle-Bta-Phe]] (Ac-F[Orn][Pip][d(hLeu)][Bta]F; lactam 2-C)",0.05 to 0.2 µM
6,"CC(=O)N[C@@H](Cc1ccccc1)C(=O)N[C@@H](CCCN)C(=O)N1CCC[C@H]1C(=O)N[C@H](CC1CCCCC1)C(=O)N[C@@H](Cc1csc2ccccc12)C(=O)N[C@@H](Cc1cccc(Cl)c1)C(N)=O [Compound 254, Ac-Phe-Orn-Pro-cha-Bta-Mcf-NH2] (Ac-F[Orn]P[dCha][Bta][Phe(3-Cl)]-NH2)",0.05 to 0.2 µM
7,"CC(=O)N[C@@H](Cc1ccccc1)C(=O)N[C@H]1CCCNC(=O)[C@H](CC2CCCCC2)NC(=O)[C@H](Cc2c[nH]c3ccccc23)NC(=O)[C@@H](CC2CCCCC2)NC(=O)[C@@H]2CCCN2C1=O [Compound 189, Ac-Phe-[Orn-Pro-cha-Trp-Cha]] (Ac-F[Orn]P[dCha]W[Cha]; lactam 2-C)",0.05 to 0.2 µM
8,"N[C@@H](CC(=O)N[C@@H](Cc1ccccc1)C(=O)N[C@H]1CCCNC(=O)[C@H](Cc2ccccc2)NC(=O)[C@H](Cc2c[nH]c3ccccc23)NC(=O)[C@@H](CC2CCCCC2)NC(=O)[C@@H]2C[C@@H](O)CN2C1=O)c1ccccc1 [Compound 318, Eby-Phe-[Orn-Hyp-cha-Trp-Phe]] (dβ3hPhg-F[Orn][Hyp][dCha]WF; lactam 2-C)",0.05 to 0.2 µM
9,"CC(=O)N[C@@H](Cc1cccs1)C(=O)N[C@H]1CCCNC(=O)[C@H](Cc2ccccc2)NC(=O)[C@H](Cc2csc3ccccc23)NC(=O)[C@@H](CCC(C)C)NC(=O)[C@@H]2CCCN2C1=O [Compound 311, Ac-Thi-[Orn-Pro-hle-Bta-Phe]] (Ac-[2Thi][Orn]P[d(hLeu)][Bta]F; lactam 2-C)",0.05 to 0.2 µM
10,"CCCC[C@@H]1NC(=O)[C@H](Cc2c[nH]c3ccccc23)NC(=O)[C@H](Cc2cccc(C)c2)NC(=O)[C@@H]2C[C@@H](O)CN2C(=O)[C@@H](NC(=O)[C@H](Cc2ccccc2)NC(C)=O)CCCNC1=O [Compound 182, Ac-Phe-[Orn-Hyp-Mmf-Trp-Nle]] (Ac-F[Orn][Hyp][Phe(3-Me)]W[Nle]; lactam 2-C)",0.05 to 0.2 µM
11,"CC(=O)N[C@@H](Cc1ccccc1)C(=O)N[C@@H](CCCN)C(=O)N1Cc2ccccc2C[C@H]1C(=O)N[C@H](CC1CCCCC1)C(=O)N[C@@H](Cc1c[nH]c2ccccc12)C(=O)N[C@@H](Cc1ccccc1)C(=O)O [Compound 116, Ac-Phe-Orn-Tic-cha-Trp-Phe-OH] (Ac-F[Orn][Tic][dCha]WF-OH)",0.2 to 2 µM
12,"CCCC[C@@H]1NC(=O)[C@H](Cc2c[nH]c3ccccc23)NC(=O)[C@@H](CC2CCCCC2)NC(=O)[C@H](CO)N(C)C(=O)[C@@H](NC(=O)[C@@H](N)Cc2ccccc2)CCCNC1=O [Compound 372, H-Phe-[Orn-NMS-cha-Trp-Nle]] (H-F[Orn][NMeS][dCha]W[Nle]; lactam 2-C)",0.05 to 0.2 µM
13,"CC(=O)N[C@@H](Cc1ccccc1)C(=O)N[C@@H](Cc1ccc(NC(=N)N)cc1)C(=O)N1CCC[C@H]1C(=O)N[C@H](CC1CCCCC1)C(=O)N[C@@H](Cc1csc2ccccc12)C(=O)N[C@@H](Cc1ccccc1)C(N)=O [Compound 228, Ac-Phe-Guf-Pro-cha-Bta-Phe-NH2] (Ac-F[Phe(4-guanidino)]P[dCha][Bta]F-NH2)",0.02 to 0.05 µM
14,"CC(=O)N[C@@H](Cc1ccccc1)C(=O)N[C@@H](CNC1=NCCN1)C(=O)N1CCC[C@H]1C(=O)N[C@H](CC1CCCCC1)C(=O)N[C@@H](Cc1csc2ccccc12)C(=O)N[C@@H](Cc1ccccc1)C(N)=O [Compound 222, Ac-Phe-Fco-Pro-cha-Bta-Phe-NH2] (Ac-F[X4]P[dCha][Bta]F-NH2)",0.05 to 0.2 µM
15,CC(=O)N[C@@H](Cc1ccccc1)C(=O)N[C@H]1CCCNC(=O)[C@H](CSCc2cccnc2)NC(=O)[C@H](Cc2c[nH]c3ccccc23)NC(=O)[C@@H](CC2CCCCC2)NC(=O)[C@@H]2CCCN2C1=O [compound 17] (Ac-F[Orn]P[dCha]WC(X22); lactam 2-C),0.2 to 2 µM
16,"CC(=O)N[C@@H](CCCCN)C(=O)N[C@@H](Cc1ccccc1)C(=O)N[C@@H](CCCN)C(=O)N1CC[C@H]1C(=O)N[C@H](CC1CCCCC1)C(=O)N[C@@H](Cc1csc2ccccc12)C(=O)N[C@@H](Cc1ccccc1)C(N)=O [Compound 160, Ac-Lys-Phe-Orn-Aze-cha-Bta-Phe-NH2] (Ac-KF[Orn][Aze][dCha][Bta]F-NH2)",0.02 to 0.05 µM
17,"CCCC[C@@H]1NC(=O)[C@H](Cc2c[nH]c3ccccc23)NC(=O)[C@@H](CC2CCCCC2)NC(=O)[C@@H]2CCCN2C(=O)[C@@H](NC(=O)[C@H](Cc2ccccc2)NC(=O)c2cccnc2)CCCNC1=O [Compound 327, Fbn-Phe-[Orn-Pro-cha-Trp-Nle]] (Nicotinoyl-F[Orn]P[dCha]W[Nle]; lactam 2-C)",0.05 to 0.2 µM
18,"CC(=O)N[C@@H](Cc1ccccc1)C(=O)N[C@@H](CCCN)C(=O)N1CCC[C@H]1C(=O)N[C@H](CCC(C)C)C(=O)N[C@@H](Cc1csc2ccccc12)C(=O)N[C@H](C(N)=O)C1CCCCC1 [Compound 275, Ac-Phe-Orn-Pro-hle-Bta-Chg-NH2] (Ac-F[Orn]P[d(hLeu)][Bta][Chg]-NH2)",0.05 to 0.2 µM
19,"CC(=O)N[C@@H](Cc1ccccc1)C(=O)N[C@@H](Cc1c[nH]c2ccccc12)C(=O)N1CCC[C@H]1C(=O)N[C@H](CC1CCCCC1)C(=O)N[C@@H](Cc1csc2ccccc12)C(=O)N[C@@H](Cc1ccccc1)C(N)=O [Compound 113, Ac-Phe-Trp-Pro-cha-Bta-Phe-NH2] (Ac-FWP[dCha][Bta]F-NH2)",0.05 to 0.2 µM
20,"COc1ccc(CCN(CC(=O)N[C@H](CC2CCCCC2)C(=O)N[C@@H](Cc2csc3ccccc23)C(=O)N[C@@H](Cc2ccccc2)C(N)=O)C(=O)[C@H](CCCN)NC(=O)[C@H](Cc2ccccc2)NC(C)=O)cc1OC [Compound 242, Ac-Phe-Orn-G31-cha-Bta-Phe-NH2] (Ac-F[Orn][N(3,4-(MeO)2phenethyl)Gly][dCha][Bta]F-NH2)",0.05 to 0.2 µM
21,"CC(=O)N[C@@H](Cc1ccccc1)C(=O)N[C@@H](CCCN)C(=O)N1CC[C@H]1C(=O)N[C@H](CC1CCCCC1)C(=O)N[C@@H](Cc1csc2ccccc12)C(=O)N[C@@H](Cc1ccccc1)C(N)=O [Compound 52, Ac-Phe-Orn-Aze-cha-Bta-Phe-NH2] (Ac-F[Orn][Aze][dCha][Bta]F-NH2)",0.01 to 0.02 µM
22,"CCCC[C@@H]1NC(=O)[C@H](Cc2c[nH]c3ccccc23)NC(=O)[C@@H](CCC(C)C)NC(=O)[C@@H]2CCCN2C(=O)[C@@H](NC(=O)[C@H](Cc2ccccc2)NC(C)=O)CCCNC1=O [Compound 199, Ac-Phe-[Orn-Pro-hle-Trp-Nle]] (Ac-F[Orn]P[d(hLeu)]W[Nle]; lactam 2-C)",0.02 to 0.05 µM
23,CC(=O)N[C@@H](Cc1ccccc1)C(=O)N[C@H]1CCCNC(=O)[C@H](CCCCNC(N)=O)NC(=O)[C@H](Cc2c[nH]c3ccccc23)NC(=O)[C@@H](CC2CCCCC2)NC(=O)[C@@H]2CCCN2C1=O [compound 13] (Ac-F[Orn]P[dCha]W[hCit]; lactam 2-C),0.2 to 2 µM
24,"CCCC[C@@H]1NC(=O)[C@H](Cc2c[nH]c3ccccc23)NC(=O)[C@@H](CC2CCCCC2)NC(=O)[C@@H]2CCCN2C(=O)[C@@H](NC(=O)[C@H](Cc2ccccc2)NC(=O)Cc2ccncc2)CCCNC1=O [Compound 325, Fbi-Phe-[Orn-Pro-cha-Trp-Nle]] ({Acetyl(4-pyridyl)}-F[Orn]P[dCha]W[Nle]; lactam 2-C)",0.05 to 0.2 µM
25,"CC(=O)N[C@@H](Cc1ccccc1)C(=O)N[C@H]1CSSC[C@@H](C(N)=O)NC(=O)[C@H](Cc2ccccc2)NC(=O)[C@H](Cc2csc3ccccc23)NC(=O)[C@@H](CC2CCCCC2)NC(=O)[C@@H]2CCCN2C1=O [Compound 172, Ac-Phe-[Cys-Pro-cha-Bta-Phe-Cys]-NH2] (Ac-FCP[dCha][Bta]FC-NH2; disulfide 2-7)",0.05 to 0.2 µM

# Same assay, conditions: functional assay of example 11; noteworthy = IC50 less than 200 nM
row,Compound,inhibitory activity (in words)
1,Ac-Phe-[Orn-Hyp(CONHCH2COH(OH)CH2OH)-cha-Trp-Phe],noteworthy inhibitory activity
